Test results from patent US20220280405A1, “NOVEL COMPOUNDS FOR SKIN LIGHTENING” (Conopco, Inc. , d/b/a UNILEVER, priority 2019, published 2022).

System: Melanoderm human tissue (MEL-300-B, Mattek Corp.)
Assay: Melanoderm assay (melanin quantitation)
Assay type: cell-based
Conditions: for Melanin (μg/μg protein): 12 d dosing, melanin normalized to protein, mean +/− standard deviation, n = 3
Experimental: Control compounds consisted of a negative control (ultrapure water), vehicle control (DMSO in ultrapure water—final concentration of 0.1%) and positive control (2% kojic acid in ultrapure water—final concentration of 700 uM). Test compounds where prepared in DMSO at 10 mM concentrations and diluted with EPI-100-LLMM media (Mattek Corp.) to a final concentration of 10 uM. Melanoderm human tissue (MEL-300-B, Mattek Corp.) was equilibrated with EPI-100-NMM media for 24 h, followed by equilibration with EPI-100-LLMM media for 48 h prior to treatment with test compounds and controls. Dosing and re-feeding of melanoderms with controls and test compounds continued for a total of 12 d following standard protocols and the melanoderms collected for melanin quantitation, viability analysis and macroscopic/microscopic imaging analysis. For melanin quantitation, tissues were suspended in PBS buffer (5 ml) for 5 min, removed from the PBS and washed/rinsed with additional PBS (2 ml). Tissues were treated with 1% sodium bicarbonate solution (300 ul) for 30 min, followed by removal of the sodium bicarbonate solution and washed/rinsed with PBS solution (2×2 ml). Tissues were suspended in Solvable reagent (500 ul) and incubated at 95° C. for 24 h along with melanin standard samples (prepared by suspending melanin (cat # M8631, Sigma-Aldrich) in Solvable reagent to generate melanin standards at 0, 2.5, 5, 10, 25, 50 and 100 ug). All incubated samples were centrifuged at 13000 rpm for 5 min and the optical density of the supernatant was read/determined at 490 nm. The amount of melanin (ug) from each tissue sample was determined from the melanin standard samples calibration curve. Protein concentration of tissue samples was determined using the BCA protein assay kit (Pierce) and melanin content was normalized and expressed as melanin (ug)/protein (ug) (Table 1). Tissue viability as a result of test compound dosing/feeding relative to negative and vehicle controls was determined using the WST-1 reagent kit (cat # 05015944001, Roche). […]

## CC(C)Oc1ccc(C(NC2CCOCC2)C2CCCCC2)cc1 (stereo not drawn) [Compound of example 1, N-(cyclohexyl(4-isopropoxyphenyl)methyl)tetrahydro-2H-pyran-4-amine]
Melanoderm treatment, 10 uM, compared to vehicle control
  melanin content / skin lightening effect (in words): reduced melanin content
Test compound 10 uM
  Melanin (μg/μg protein): 0.177 +/− 0.019 μg/μg protein

## O=c1cc(CO)occ1O [Kojic acid, reference compound]
Positive control 700 μM
  Melanin (μg/μg protein): 0.128 +/− 0.004 μg/μg protein
